Results taken from patent US20180148418A1, “AMIDO-SUBSTITUTED CYCLOHEXANE DERIVATIVES” (Bayer Pharma Aktiengesellschaft, priority 2015, published 2018).
Structures can show the parent of a compound that is named as a salt.

target: T1, TNKS1 (Homo sapiens, UniProt O95271); experiment: TNKS1 Assay B (auto-parsylation, [3H]-NAD+ SPA); format: biochemical; settings: 6 nM TNKS1, auto-parsylation, over night at room temperature
T1 construct: purchased BPS Bioscience, San Diego, USA 80579 (TNKS1 Histone Ribosylation Assay Kit)
T1 sequence (O95271 1-1327): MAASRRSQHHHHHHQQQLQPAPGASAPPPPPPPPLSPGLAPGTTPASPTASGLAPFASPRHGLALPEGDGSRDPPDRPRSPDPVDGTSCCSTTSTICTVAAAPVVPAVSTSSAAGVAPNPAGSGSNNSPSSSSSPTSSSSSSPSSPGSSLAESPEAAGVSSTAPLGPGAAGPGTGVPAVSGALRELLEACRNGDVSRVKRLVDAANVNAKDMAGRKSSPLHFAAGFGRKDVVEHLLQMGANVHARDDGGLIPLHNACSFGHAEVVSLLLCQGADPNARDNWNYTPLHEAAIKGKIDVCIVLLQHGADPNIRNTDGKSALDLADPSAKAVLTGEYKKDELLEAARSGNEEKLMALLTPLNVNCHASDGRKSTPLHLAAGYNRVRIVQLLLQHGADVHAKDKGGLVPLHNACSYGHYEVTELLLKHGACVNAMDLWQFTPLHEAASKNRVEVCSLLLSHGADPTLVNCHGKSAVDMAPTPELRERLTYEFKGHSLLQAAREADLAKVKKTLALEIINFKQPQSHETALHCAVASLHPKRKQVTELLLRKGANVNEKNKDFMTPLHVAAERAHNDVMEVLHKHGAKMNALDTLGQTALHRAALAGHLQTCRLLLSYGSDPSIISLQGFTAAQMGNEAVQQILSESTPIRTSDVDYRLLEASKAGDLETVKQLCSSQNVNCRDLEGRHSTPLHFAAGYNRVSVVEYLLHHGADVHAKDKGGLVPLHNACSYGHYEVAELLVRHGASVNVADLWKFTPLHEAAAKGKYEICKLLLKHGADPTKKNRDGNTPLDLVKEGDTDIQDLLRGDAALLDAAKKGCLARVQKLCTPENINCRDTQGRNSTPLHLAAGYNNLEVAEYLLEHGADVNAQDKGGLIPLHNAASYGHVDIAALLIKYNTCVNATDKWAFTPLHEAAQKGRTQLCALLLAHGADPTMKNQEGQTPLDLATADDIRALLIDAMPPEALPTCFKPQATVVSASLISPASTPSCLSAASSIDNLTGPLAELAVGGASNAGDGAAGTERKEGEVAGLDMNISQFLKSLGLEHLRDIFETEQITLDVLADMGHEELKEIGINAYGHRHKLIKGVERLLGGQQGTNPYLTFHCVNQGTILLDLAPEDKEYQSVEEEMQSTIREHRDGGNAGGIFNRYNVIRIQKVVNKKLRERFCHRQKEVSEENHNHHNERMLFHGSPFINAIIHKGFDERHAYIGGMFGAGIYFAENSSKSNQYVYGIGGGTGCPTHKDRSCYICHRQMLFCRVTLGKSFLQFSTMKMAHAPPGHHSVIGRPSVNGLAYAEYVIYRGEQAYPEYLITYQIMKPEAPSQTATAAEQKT

| Compound | IC50 [nM] |
| --- | --- |
| CNC(=O)c1nc[nH]c1C(=O)N[C@H]1CC[C@H](C(=O)N(C)c2ccccc2C)CC1 [Example 203, N^4-methyl-N^5-{trans-4-[methyl(2-methylphenyl)carbamoyl]cyclohexyl}-1H-imidazole-4,5-dicarboxamide] | 630 |
| O=C(N[C@H]1CC[C@H](C(=O)Nc2ccc(F)cc2Cl)CC1)c1cnn2ccccc12 [Example 205, N-{trans-4-[(2-chloro-4-fluorophenyl)carbamoyl]cyclohexyl}pyrazolo[1,5-a]pyridine-3-carboxamide] | > 10000 |
| O=C(N[C@H]1CC[C@H](C(=O)Nc2ccc(F)cc2Cl)CC1)c1cnc2ccccn12 [Example 206, N-{trans-4-[(2-chloro-4-fluorophenyl)carbamoyl]cyclohexyl}imidazo[1,2-a]pyridine-3-carboxamide] | > 10000 |
| Cc1cc(C)n2ncc(C(=O)N[C@H]3CC[C@]4(CCN(c5ccc(F)cc5)C4=O)CC3)c2n1 [Example 208, N-[(cis)-2-(4-fluorophenyl)-1-oxo-2-azaspiro[4.5]dec-8-yl]-5,7-dimethyl pyrazolo[1,5-a]pyrimidine-3-carboxamide] | 5600 |
| O=C(N[C@H]1CC[C@@]2(CCN(c3ccc(F)cc3)C2=O)CC1)c1cnn2cccnc12 [Example 209, N-[(trans)-2-(4-fluorophenyl)-1-oxo-2-azaspiro[4.5]dec-8-yl]pyrazolo[1,5-a]pyrimidine-3-carboxamide] | 1200 |
| Cc1cnc2c(C(=O)N[C@H]3CC[C@@]4(CCN(c5ccc(F)cc5)C4=O)CC3)cnn2c1 [Example 210, N-[(trans)-2-(4-fluorophenyl)-1-oxo-2-azaspiro[4.5]dec-8-yl]-6-methylpyrazolo[1,5-a]pyrimidine-3-carboxamide] | 390 |
| Cc1cc(C)n2ncc(C(=O)N[C@H]3CC[C@@]4(CCN(c5ccc(F)cc5)C4=O)CC3)c2n1 [Example 211, N-[(trans)-2-(4-fluorophenyl)-1-oxo-2-azaspiro[4.5]dec-8-yl]-5,7-di methyl pyrazolo[1,5-a]pyrimidine-3-carboxamide] | 430 |
| CNC(=O)c1[nH]cnc1C(=O)N[C@H]1CC[C@@]2(CCN(c3ccc(F)cc3)C2=O)CC1 [Example 212, N^4-[(trans)-2-(4-fluorophenyl)-1-oxo-2-azaspiro[4.5]dec-8-yl]-N^5-methyl-1H-imidazole-4,5-dicarboxamide] | 560 |
| Cc1nn2cccnc2c1C(=O)N[C@H]1CC[C@@]2(CCN(c3ccc(F)cc3Cl)C2=O)CC1 [Example 216, N-[(trans)-2-(2-chloro-4-fluorophenyl)-1-oxo-2-azaspiro[4.5]dec-8-yl]-2-methylpyrazolo[1,5-a]pyrimidine-3-carboxamide] | 570 |

Now those with a lower IC50, led by results:

| IC50 [nM] | Compound |
| --- | --- |
| 5.5 | O=C(NCC(F)(F)F)c1nc[nH]c1C(=O)N[C@H]1CC[C@@]2(CCN(c3cc(F)c(F)cc3Cl)C2=O)CC1 [Example 201, N^5-[(trans)-2-(2-chloro-4,5-difluorophenyl)-1-oxo-2-azaspiro[4.5]dec-8-yl]-N^4-(2,2,2-trifluoroethyl)-1H-imidazole-4,5-dicarboxamide] |
| 7.3 | COCCNC(=O)c1nc[nH]c1C(=O)N[C@H]1CC[C@@]2(CCN(c3cc(F)c(F)cc3Cl)C2=O)CC1 [Example 202, N^5-[(trans)-2-(2-chloro-4,5-difluorophenyl)-1-oxo-2-azaspiro[4.5]dec-8-yl]-N^4-(2-methoxyethyl)-1H-imidazole-4,5-dicarboxamide] |
| 340 | CCNC(=O)c1[nH]cnc1C(=O)N[C@H]1CC[C@@]2(CCN(c3ccc(F)cc3)C2=O)CC1 [Example 213, N^5-ethyl-N^4-[(trans)-2-(4-fluorophenyl)-1-oxo-2-azaspiro[4.5]dec-8-yl]-1H-imidazole-4,5-dicarboxamide] |
| 12 | O=C(N[C@H]1CC[C@@]2(CCN(c3ccc(F)cc3Cl)C2=O)CC1)c1cnn2cc(CCO)cnc12 [Example 214, N-[(trans)-2-(2-chloro-4-fluorophenyl)-1-oxo-2-azaspiro[4.5]dec-8-yl]-6-(2-hydroxyethyl)pyrazolo[1,5-a]pyrimidine-3-carboxamide] |
| 7.5 | CNc1ccn2ncc(C(=O)N[C@H]3CC[C@@]4(CCN(c5ccc(F)cc5Cl)C4=O)CC3)c2n1 [Example 215, N-[(trans)-2-(2-chloro-4-fluorophenyl)-1-oxo-2-azaspiro[4.5]dec-8-yl]-5-(methylamino)pyrazolo[1,5-a]pyrimidine-3-carboxamide] |
| 6.1 | CN(C)c1ccn2ncc(C(=O)N[C@H]3CC[C@@]4(CCN(c5ccc(F)cc5Cl)C4=O)CC3)c2n1 [Example 217, N-[(trans)-2-(2-chloro-4-fluorophenyl)-1-oxo-2-azaspiro[4.5]dec-8-yl]-5-(dimethylamino)pyrazolo[1,5-a]pyrimidine-3-carboxamide] |
| 14 | COc1ccn2ncc(C(=O)N[C@H]3CC[C@@]4(CCN(c5ccc(F)cc5Cl)C4=O)CC3)c2n1 [Example 218, N-[(trans)-2-(2-chloro-4-fluorophenyl)-1-oxo-2-azaspiro[4.5]dec-8-yl]-5-methoxypyrazolo[1,5-a]pyrimidine-3-carboxamide] |
| 11 | Cc1ccn2ncc(C(=O)N[C@H]3CC[C@@]4(CCN(c5ccc(F)cc5Cl)C4=O)CC3)c2n1 [Example 221, N-[(trans)-2-(2-chloro-4-fluorophenyl)-1-oxo-2-azaspiro[4.5]dec-8-yl]-5-methylpyrazolo[1,5-a]pyrimidine-3-carboxamide] |
| 13 | Cc1ccnc2c(C(=O)N[C@H]3CC[C@@]4(CCN(c5ccc(F)cc5Cl)C4=O)CC3)cnn12 [Example 222, N-[(trans)-2-(2-chloro-4-fluorophenyl)-1-oxo-2-azaspiro[4.5]dec-8-yl]-7-methylpyrazolo[1,5-a]pyrimidine-3-carboxamide] |
| 14 | Cc1cc(C(F)F)n2ncc(C(=O)N[C@H]3CC[C@@]4(CCN(c5ccc(F)cc5Cl)C4=O)CC3)c2n1 [Example 224, N-[(trans)-2-(2-chloro-4-fluorophenyl)-1-oxo-2-azaspiro[4.5]dec-8-yl]-7-(difluoromethyl)-5-methylpyrazolo[1,5-a]pyrimidine-3-carboxamide] |
| 6 | CC(C)(C)OC(=O)N1CCN(c2ccn3ncc(C(=O)N[C@H]4CC[C@@]5(CCN(c6ccc(F)cc6Cl)C5=O)CC4)c3n2)CC1 [Example 225, tert-butyl 4-(3-{[(trans)-2-(2-chloro-4-fluorophenyl)-1-oxo-2-azaspiro[4.5]dec-8-yl]carbamoyl}pyrazolo[1,5-a]pyrimidin-5-yl)piperazine-1-carboxylate] |
| 8.2 | O=C(N[C@H]1CC[C@@]2(CCN(c3ccc(F)cc3Cl)C2=O)CC1)c1cnn2ccc(N3CCNCC3)nc12 [Example 226, N-[(trans)-2-(2-chloro-4-fluorophenyl)-1-oxo-2-azaspiro[4.5]dec-8-yl]-5-(piperazin-1-yl)pyrazolo[1,5-a]pyrimidine-3-carboxamide hydrochloric acid salt] |
| 8.5 | O=C(N[C@H]1CC[C@@]2(CCN(c3ccc(F)cc3Cl)C2=O)CC1)c1cnn2ccc(N3CCCC3)nc12 [Example 232, N-[(trans)-2-(2-chloro-4-fluorophenyl)-1-oxo-2-azaspiro[4.5]dec-8-yl]-5-(pyrrolidin-1-yl)pyrazolo[1,5-a]pyrimidine-3-carboxamide] |
